Assay: Amino-carbonyl reaction with glycine
Assay type: physicochemical
Conditions: […] (w/v) saccharide, 0.5% (w/v) glycine, pH 8.0, 100° C.
Description: As a control, an aqueous solution containing maltose and glycine was prepared in the same manner using maltose except for the powdery hydrous crystalline CMM. Four milliliters each of the solution was put in a glass tube, sealed and then heated at 100° C. for 30, 60, or 90 min. After cooling the solutions, the degrees of coloring of the solutions were measured to estimate the degree of amino-carbonyl reaction. The degree of coloring was defined as an absorbance at 480 nm using a 1 cm-cell.

Measured: Degree of coloring (A480 nm)

OC[C@H]1O[C@@H]2OC[C@H]3O[C@H](O[C@H]4[C@H](O)[C@@H](O)[C@@H](OC[C@H]5O[C@H](O[C@H]1[C@H](O)[C@H]2O)[C@H](O)[C@@H](O)[C@@H]5O)O[C@@H]4CO)[C@H](O)[C@@H](O)[C@@H]3O [CMM, cyclo{>6)-α-D-glucopyranosyl-(1>4)-α-D-glucopyranosyl-(1>6)-α-D-glucopyranosyl-(1>4)-α-D-glucopyranosyl-(1>}]
0.00: heating time 0 min | heating time 30 min | heating time 60 min | heating time 90 min

Reference: patent publication US7951530B2, “Cyclic maltosylmaltose, cyclic maltosymaltose-forming enzyme, their preparation and uses” (Kabushiki Kaisha Hayashibara Seibutsu Kagaku Kenkyujo, priority 2003, dated 2011)
